Assay results: US20240391931A1 (Bristol-Myers Squibb Company, priority 2021, published 2024)

How the values were obtained:
[1] = biological target: T1, HER2 wildtype (WT) protein (Homo sapiens, UniProt P04626); experiment: HER2 signaling (pHER2 Tyr1248/total HER2 MSD) in BT474 cells; format: cell-based; settings: 1.5 hr compound, 1% FBS
T1 construct: BT474 and N87 cell lines which endogenously overexpress the HER2 wildtype (WT) protein; endogenous in cells; host or cells: BT474, N87
Outline: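 BT474, N87 (HER2 WT) and NCI-H1781 (HER2 G776delinsVC) cells were treated for 1.5 h at 37° C in 1% FBS medium with compound at 0.0005–1.1 μM. pHER2 Tyr1248 was measured by MSD on whole-cell lysates and normalized to total HER2 as % DMSO. EC50 came from a variable-slope sigmoidal fit.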

EGFR WT = biological target: T2, EGFR WT (Homo sapiens, UniProt P00533); experiment: Enzymatic assay EGFR WT (method c); format: biochemical; settings: [EGFR WT]=2 nM, [ATP]=1 mM, [Peptide 22]=1 μM
T2 construct: purchased Thermo Fisher, Carlsbad, CA ERBB1 PR7295B
T2 sequence (P00533 25-1210): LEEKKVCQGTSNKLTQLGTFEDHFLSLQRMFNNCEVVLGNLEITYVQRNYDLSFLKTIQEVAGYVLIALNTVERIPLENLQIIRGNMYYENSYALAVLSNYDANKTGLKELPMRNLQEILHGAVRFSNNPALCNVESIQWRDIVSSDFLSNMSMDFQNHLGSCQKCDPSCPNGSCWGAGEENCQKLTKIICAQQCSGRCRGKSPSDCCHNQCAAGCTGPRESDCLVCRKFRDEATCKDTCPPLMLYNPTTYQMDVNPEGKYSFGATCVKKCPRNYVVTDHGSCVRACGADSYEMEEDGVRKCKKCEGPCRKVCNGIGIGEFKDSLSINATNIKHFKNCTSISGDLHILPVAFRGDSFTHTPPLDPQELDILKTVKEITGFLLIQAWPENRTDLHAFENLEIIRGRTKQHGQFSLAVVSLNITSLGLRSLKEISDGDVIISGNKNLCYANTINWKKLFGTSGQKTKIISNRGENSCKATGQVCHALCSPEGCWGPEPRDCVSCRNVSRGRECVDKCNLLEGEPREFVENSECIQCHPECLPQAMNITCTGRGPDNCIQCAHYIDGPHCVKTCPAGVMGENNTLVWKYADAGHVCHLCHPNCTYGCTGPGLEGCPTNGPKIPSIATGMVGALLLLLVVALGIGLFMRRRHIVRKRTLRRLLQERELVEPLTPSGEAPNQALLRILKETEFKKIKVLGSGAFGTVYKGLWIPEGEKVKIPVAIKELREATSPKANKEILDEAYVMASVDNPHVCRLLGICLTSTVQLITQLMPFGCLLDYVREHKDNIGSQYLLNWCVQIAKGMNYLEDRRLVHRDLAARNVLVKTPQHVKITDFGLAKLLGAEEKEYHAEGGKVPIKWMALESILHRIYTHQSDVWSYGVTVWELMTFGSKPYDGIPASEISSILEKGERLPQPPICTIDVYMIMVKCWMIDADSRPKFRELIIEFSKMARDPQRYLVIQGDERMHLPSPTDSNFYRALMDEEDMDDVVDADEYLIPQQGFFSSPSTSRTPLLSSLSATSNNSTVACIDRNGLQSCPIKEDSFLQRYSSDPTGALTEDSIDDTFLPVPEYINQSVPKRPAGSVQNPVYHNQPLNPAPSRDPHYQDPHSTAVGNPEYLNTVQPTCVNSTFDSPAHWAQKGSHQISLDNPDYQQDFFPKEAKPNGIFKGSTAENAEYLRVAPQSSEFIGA
Outline: (§1)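 Initial rates over 0–3600 s, read as substrate-to-product conversion by capillary electrophoresis, were converted to percent inhibition and fitted with a variable-slope curve to give IC50. Conditions: EGFR WT 2 nM with 1 mM ATP; HER2 YVMA 5 nM or HER2 WT 12.5 nM, each with 25 μM ATP. All used 1 μM Peptide 22 in pH 7.5 HEPES/Mn/Mg buffer.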

HER2 WT = biological target: T3, HER2 WT (Homo sapiens, UniProt P04626); experiment: Enzymatic assay HER2 WT (method a); format: biochemical; settings: [HER2 WT]=12.5 nM, [ATP]=25 μM, [Peptide 22]=1 μM
T3 construct: purchased ProQinase, Freiburg, Germany ERBB2 0108-0000-1
T3 sequence (P04626 23-1255): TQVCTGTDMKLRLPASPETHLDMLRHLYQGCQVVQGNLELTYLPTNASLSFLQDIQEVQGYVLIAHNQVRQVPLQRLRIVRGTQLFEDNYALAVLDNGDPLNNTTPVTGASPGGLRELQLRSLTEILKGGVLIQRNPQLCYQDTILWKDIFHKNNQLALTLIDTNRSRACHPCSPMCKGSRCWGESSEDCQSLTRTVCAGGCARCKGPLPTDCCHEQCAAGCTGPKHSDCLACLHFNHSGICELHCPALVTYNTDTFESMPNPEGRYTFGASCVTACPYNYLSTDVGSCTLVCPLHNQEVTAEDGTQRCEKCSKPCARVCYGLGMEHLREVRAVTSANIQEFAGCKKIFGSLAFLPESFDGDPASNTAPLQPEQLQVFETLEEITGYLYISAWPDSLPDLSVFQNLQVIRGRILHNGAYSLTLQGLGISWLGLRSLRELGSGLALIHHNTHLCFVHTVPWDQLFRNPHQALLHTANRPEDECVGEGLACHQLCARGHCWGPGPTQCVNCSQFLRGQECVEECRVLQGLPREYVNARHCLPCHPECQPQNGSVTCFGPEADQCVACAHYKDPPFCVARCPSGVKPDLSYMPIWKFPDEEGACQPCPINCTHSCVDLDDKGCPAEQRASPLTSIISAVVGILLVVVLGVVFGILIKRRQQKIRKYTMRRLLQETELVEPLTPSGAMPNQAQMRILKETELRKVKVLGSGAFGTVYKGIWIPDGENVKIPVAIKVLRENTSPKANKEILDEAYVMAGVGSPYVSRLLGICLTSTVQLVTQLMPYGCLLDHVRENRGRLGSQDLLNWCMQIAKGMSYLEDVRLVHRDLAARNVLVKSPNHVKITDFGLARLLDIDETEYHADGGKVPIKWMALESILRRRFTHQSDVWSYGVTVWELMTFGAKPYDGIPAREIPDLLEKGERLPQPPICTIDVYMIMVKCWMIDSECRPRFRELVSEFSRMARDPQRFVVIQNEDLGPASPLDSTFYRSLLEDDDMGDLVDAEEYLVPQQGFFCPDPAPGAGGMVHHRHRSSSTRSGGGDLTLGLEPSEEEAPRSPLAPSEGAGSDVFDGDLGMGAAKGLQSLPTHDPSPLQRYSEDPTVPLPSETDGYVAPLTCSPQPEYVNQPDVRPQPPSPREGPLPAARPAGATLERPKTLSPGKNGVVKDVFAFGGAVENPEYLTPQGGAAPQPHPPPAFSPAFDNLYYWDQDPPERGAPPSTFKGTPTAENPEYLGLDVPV
Outline: as §1

T1 sequence (P04626 23-1255): as above

Structure (SMILES) | EC50 [1] | IC50 (EGFR WT) | IC50 (HER2 WT)
Cc1ccc(Oc2ccc(Nc3ncnc4sc5c(c34)CCN(C(=O)/C=C/CNCCO)C5)cc2C)cn1 [Compound 65] | < 100 nM | 1000 to 10000 nM | < 100 nM
Cc1ccc(Oc2ccc(Nc3ncnc4sc5c(c34)CCN(C(=O)/C=C/CN3C[C@H]4CC[C@@H](C3)O4)C5)cc2C)cn1 [Compound 66] | < 100 nM | > 10000 nM | < 100 nM
Cc1ccc(Oc2ccc(Nc3ncnc4sc5c(c34)CCN(C(=O)/C=C/CN3CCC4(CCOC4)C3)C5)cc2C)cn1 (stereo not drawn) [Compound 67] | < 100 nM | > 10000 nM | < 100 nM
Cc1ccc(Oc2ccc(Nc3ncnc4sc5c(c34)CCN(C(=O)/C=C/CN[C@H]3CC[C@H](OC4CC4)CC3)C5)cc2C)cn1 [Compound 68] | < 100 nM | > 10000 nM | < 100 nM
Cc1ccc(Oc2ccc(Nc3ncnc4sc5c(c34)CCN(C(=O)/C=C/CN[C@H]3CC[C@H](OC(F)F)CC3)C5)cc2C)cn1 [Compound 69] | < 100 nM | 1000 to 10000 nM | < 100 nM
Cc1ccc(Oc2ccc(Nc3ncnc4sc5c(c34)CCN(C(=O)/C=C/CN[C@H]3CC[C@H](OCC(F)(F)F)CC3)C5)cc2C)cn1 [Compound 70] | < 100 nM | 1000 to 10000 nM | < 100 nM
Cc1ccc(Oc2ccc(Nc3ncnc4sc5c(c34)CCN(C(=O)/C=C/CNC3CCC(C(=O)N(C)C)CC3)C5)cc2C)cn1 (stereo not drawn) [Compound 71] | < 100 nM | 1000 to 10000 nM | < 100 nM
Cc1ccc(Oc2ccc(Nc3ncnc4sc5c(c34)CCN(C(=O)/C=C/CNC34CCC(C#N)(CC3)CC4)C5)cc2C)cn1 [Compound 72] | < 100 nM | 1000 to 10000 nM | < 100 nM
Cc1ccc(Oc2ccc(Nc3ncnc4sc5c(c34)CCN(C(=O)/C=C/CN[C@H]3CCC[C@H](O)C3)C5)cc2C)cn1 [Compound 73] | < 100 nM | 1000 to 10000 nM | < 100 nM
Cc1ccc(Oc2ccc(Nc3ncnc4sc5c(c34)CCN(C(=O)/C=C/CN[C@@H](C)CO)C5)cc2C)cn1 [Compound 75] | < 100 nM | 1000 to 10000 nM | < 100 nM
Cc1cc(Nc2ncnc3sc4c(c23)CCN(C(=O)/C=C/CN2CC3CC(C3)C2)C4)ccc1Oc1ccc2ncnn2c1 [Compound 82] | < 100 nM | > 10000 nM | < 100 nM
O=C(/C=C/CN1CC2CC(C2)C1)N1CCc2c(sc3ncnc(Nc4ccc(Oc5ccc6ncnn6c5)c(Cl)c4)c23)C1 [Compound 85] | < 100 nM | 1000 to 10000 nM | < 100 nM
C=C(CN1CCc2c(sc3ncnc(Nc4ccc(Oc5ccc(C)nc5)c(C)c4)c23)C1)C(=O)OCC [Compound 86, Ethyl 2-((4-((3-methyl-4-((6-methylpyridin-3-yl)oxy)phenyl)amino)-5,8-dihydropyrido[4′,3′:4,5]thieno[2,3-d]pyrimidin-7(6H)-yl)methyl)acrylate] | 100 to 350 nM | > 10000 nM | 100 to 1000 nM
C=CC(=O)N1CCc2[nH]c3ncnc(Nc4ccc(Oc5ccc(C)nc5)c(C)c4)c3c2C1 [Compound 94, 1-(4-((3-methyl-4-((6-methylpyridin-3-yl)oxy)phenyl)amino)-7,8-dihydro-5H-pyrido[3′,4′:4,5]pyrrolo[2,3-d]pyrimidin-6(9H)-yl)prop-2-en-1-one] | < 100 nM | > 10000 nM | < 100 nM
COc1ccc(Oc2ccc(Nc3ncnc4sc5c(c34)CCN(C(=O)/C=C/CN(C)C)C5)cc2C)cn1 [Compound 95, (E)-4-(Dimethylamino)-1-(4-((4-((6-methoxypyridin-3-yl)oxy)-3-methylphenyl)amino)-5,6-dihydropyrido[4′,3′:4,5]thieno[2,3-d]pyrimidin-7(8H)-yl)but-2-en-1-one] | < 100 nM | > 10000 nM | < 100 nM
CCOC/C=C/C(=O)N1CCc2c(sc3ncnc(Nc4ccc(Oc5ccc(C)nc5)c(C)c4)c23)C1 [Compound 96, (E)-4-ethoxy-1-(4-((3-methyl-4-((6-methylpyridin-3-yl)oxy)phenyl)amino)-5,8-dihydropyrido[4′,3′:4,5]thieno[2,3-d]pyrimidin-7(6H)-yl)but-2-en-1-one] | < 100 nM | > 10000 nM | < 100 nM
Cc1ccc(Oc2ccc(Nc3ncnc4[nH]c5c(c34)CN(C(=O)/C=C/CN(C)C)CC5)cc2C)cn1 [Compound 97, (E)-4-(dimethylamino)-1-(4-((3-methyl-4-((6-methylpyridin-3-yl)oxy)phenyl)amino)-5,7,8,9-tetrahydro-6H-pyrido[3′,4′:4,5]pyrrolo[2,3-d]pyrimidin-6-yl)but-2-en-1-one] | < 100 nM | > 10000 nM | < 100 nM
Cc1ccc(Oc2ccc(Nc3ncnc4sc5c(c34)C(C)CN(C(=O)/C=C/CN(C)C)C5)cc2C)cn1 (stereo not drawn) [Compound 98, (E)-4-(dimethylamino)-1-(5-methyl-4-((3-methyl-4-((6-methylpyridin-3-yl)oxy)phenyl)amino)-5,8-dihydropyrido[4′,3′:4,5]thieno[2,3-d]pyrimidin-7(6H)-yl)but-2-en-1-one] | < 100 nM | > 10000 nM | < 100 nM
Cc1ccc(Oc2ccc(Nc3ncnc4sc5c(c34)CN(C(=O)/C=C/CN(C)C)C5)cc2C)cn1 [Compound 99, (E)-4-(dimethylamino)-1-(4-((3-methyl-4-((6-methylpyridin-3-yl)oxy)phenyl)amino)-5,7-dihydro-6H-pyrrolo[3′,4′:4,5]thieno[2,3-d]pyrimidin-6-yl)but-2-en-1-one] | < 100 nM | > 10000 nM | 100 to 1000 nM
Cc1ccc(Oc2ccc(Nc3ncnc4sc5c(c34)CCN(C(=O)/C=C/CN(C)C)CC5)cc2C)cn1 [Compound 100, (E)-4-(dimethylamino)-1-(4-((3-methyl-4-((6-methylpyridin-3-yl)oxy)phenyl)amino)-8,9-dihydro-5H-pyrimido[5′,4′:4,5]thieno[2,3-d]azepin-7(6H)-yl)but-2-en-1-one] | < 100 nM | > 10000 nM | 100 to 1000 nM
Cc1ccc(Oc2ccc(Nc3ncnc4sc5c(c34)CCCN(C(=O)/C=C/CN(C)C)C5)cc2C)cn1 [Compound 101, (E)-4-(Dimethylamino)-1-(4-((3-methyl-4-((6-methylpyridin-3-yl)oxy)phenyl)amino)-6,7-dihydro-5H-pyrimido[5′,4′:4,5]thieno[2,3-c]azepin-8(9H)-yl)but-2-en-1-one] | < 100 nM | > 10000 nM | < 100 nM
C=CC(=O)N1CCc2[nH]c3ncnc(Nc4ccc(Oc5ccc6ncnn6c5)c(C)c4)c3c2C1 [Compound 102, 1-(4-((4-([1,2,4]triazolo[1,5-a]pyridin-6-yloxy)-3-methylphenyl)amino)-5,7,8,9-tetrahydro-6H-pyrido[3′,4′:4,5]pyrrolo[2,3-d]pyrimidin-6-yl)prop-2-en-1-one] | < 100 nM | > 10000 nM | < 100 nM

Continued, values first:

EC50 [1] | IC50 (EGFR WT) | IC50 (HER2 WT) | Structure (SMILES)
< 100 nM | 1000 to 10000 nM | < 100 nM | Cc1ccc(Oc2ccc(Nc3ncnc4sc5c(c34)CCN(C(=O)/C=C/CN3CCC(O)C3)C5)cc2C)cn1 (stereo not drawn) [Compound 74]
< 100 nM | 1000 to 10000 nM | < 100 nM | Cc1ccc(Oc2ccc(Nc3ncnc4sc5c(c34)CCN(C(=O)/C=C/CN3CC4CC4C3)C5)cc2C)cn1 (stereo not drawn) [Compound 76]
< 100 nM | > 10000 nM | 100 to 1000 nM | Cc1cc(Nc2ncnc3sc4c(c23)CCN(C(=O)/C=C/CN2CC3CC2CO3)C4)ccc1Oc1ccc2ncnn2c1 (stereo not drawn) [Compound 77]
< 100 nM | > 10000 nM | < 100 nM | Cc1cc(Nc2ncnc3sc4c(c23)CCN(C(=O)/C=C/CN(C)C(C)(C)C)C4)ccc1Oc1ccc2ncnn2c1 [Compound 80]
< 100 nM | > 10000 nM | < 100 nM | Cc1cc(Nc2ncnc3sc4c(c23)CCN(C(=O)/C=C/CN2CC3C(CO)C3C2)C4)ccc1Oc1ccc2ncnn2c1 (stereo not drawn) [Compound 81]
< 100 nM | > 10000 nM | 100 to 1000 nM | Cc1cc(Nc2ncnc3sc4c(c23)CCN(C(=O)/C=C/CN2CC(C)OC(C)C2C)C4)ccc1Oc1ccc2ncnn2c1 (stereo not drawn) [Compound 83]
< 100 nM | > 10000 nM | 100 to 1000 nM | Cc1cc(Nc2ncnc3sc4c(c23)CCN(C(=O)/C=C/CN2CC(C)(C)OC(C)(C)C2)C4)ccc1Oc1ccc2ncnn2c1 [Compound 84]
< 100 nM | 1000 to 10000 nM | < 100 nM | O=C(/C=C/CN1CC2CC1CO2)N1CCc2c(sc3ncnc(Nc4ccc(Oc5ccc6ncnn6c5)c(Cl)c4)c23)C1 (stereo not drawn) [Compound 87]
< 100 nM | > 10000 nM | < 100 nM | O=C(/C=C/CN1CC2CCC(C2)C1)N1CCc2c(sc3ncnc(Nc4ccc(Oc5ccc6ncnn6c5)c(Cl)c4)c23)C1 [Compound 88]
< 100 nM | > 10000 nM | < 100 nM | CN(C/C=C/C(=O)N1CCc2c(sc3ncnc(Nc4ccc(Oc5ccc6ncnn6c5)c(Cl)c4)c23)C1)C(C)(C)C [Compound 91]
< 100 nM | > 10000 nM | < 100 nM | O=C(/C=C/CN1CC2C(CO)C2C1)N1CCc2c(sc3ncnc(Nc4ccc(Oc5ccc6ncnn6c5)c(Cl)c4)c23)C1 (stereo not drawn) [Compound 92]
